Experiment [1] deals with T1, Acetylcholinesterase (Bos taurus, UniProt P23795).
T1 sequence (P23795 whole entry): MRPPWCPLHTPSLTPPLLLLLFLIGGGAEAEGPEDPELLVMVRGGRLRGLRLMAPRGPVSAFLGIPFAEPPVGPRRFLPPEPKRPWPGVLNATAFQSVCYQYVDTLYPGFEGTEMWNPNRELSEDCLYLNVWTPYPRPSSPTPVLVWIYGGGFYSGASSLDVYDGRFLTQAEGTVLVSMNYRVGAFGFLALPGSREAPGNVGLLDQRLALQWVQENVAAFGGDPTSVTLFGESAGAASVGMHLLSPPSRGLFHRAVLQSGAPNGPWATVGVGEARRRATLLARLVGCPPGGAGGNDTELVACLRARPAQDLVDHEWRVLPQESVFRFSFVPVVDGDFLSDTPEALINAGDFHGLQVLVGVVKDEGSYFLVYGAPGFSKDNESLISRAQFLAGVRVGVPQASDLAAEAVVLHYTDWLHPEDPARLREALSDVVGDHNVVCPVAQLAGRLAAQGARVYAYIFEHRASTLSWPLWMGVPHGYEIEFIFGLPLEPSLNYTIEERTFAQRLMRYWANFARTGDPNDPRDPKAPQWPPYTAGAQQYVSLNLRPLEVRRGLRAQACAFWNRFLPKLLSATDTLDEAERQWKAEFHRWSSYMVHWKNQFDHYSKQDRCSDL
Description: Inhibition of fetal Bovine serum AChE

The target of the next experiment is Butyrylcholinesterase (Equus caballus, UniProt Q9N1N9).
Chain of Butyrylcholinesterase (Q9N1N9 whole entry): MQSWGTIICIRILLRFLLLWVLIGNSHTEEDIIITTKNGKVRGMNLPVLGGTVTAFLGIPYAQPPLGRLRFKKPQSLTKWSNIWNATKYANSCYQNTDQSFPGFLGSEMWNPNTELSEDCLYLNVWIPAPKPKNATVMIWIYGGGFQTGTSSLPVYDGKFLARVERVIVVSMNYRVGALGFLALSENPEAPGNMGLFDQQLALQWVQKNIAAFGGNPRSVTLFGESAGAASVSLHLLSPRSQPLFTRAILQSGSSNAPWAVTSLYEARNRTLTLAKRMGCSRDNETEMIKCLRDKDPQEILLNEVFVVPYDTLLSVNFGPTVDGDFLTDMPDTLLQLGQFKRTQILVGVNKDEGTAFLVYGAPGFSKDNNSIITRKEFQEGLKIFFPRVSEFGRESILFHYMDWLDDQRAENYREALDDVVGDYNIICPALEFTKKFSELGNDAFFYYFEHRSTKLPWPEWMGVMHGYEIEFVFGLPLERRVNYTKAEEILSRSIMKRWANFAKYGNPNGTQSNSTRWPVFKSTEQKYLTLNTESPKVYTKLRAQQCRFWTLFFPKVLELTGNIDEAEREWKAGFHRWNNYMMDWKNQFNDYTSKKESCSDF
The target of experiment [2] is Acetylcholinesterase (Homo sapiens, UniProt P22303). Nature of the experiment: Inhibitory activity against human AChE.
Chain of Acetylcholinesterase (Homo sapiens, UniProt P22303) (P22303 whole entry): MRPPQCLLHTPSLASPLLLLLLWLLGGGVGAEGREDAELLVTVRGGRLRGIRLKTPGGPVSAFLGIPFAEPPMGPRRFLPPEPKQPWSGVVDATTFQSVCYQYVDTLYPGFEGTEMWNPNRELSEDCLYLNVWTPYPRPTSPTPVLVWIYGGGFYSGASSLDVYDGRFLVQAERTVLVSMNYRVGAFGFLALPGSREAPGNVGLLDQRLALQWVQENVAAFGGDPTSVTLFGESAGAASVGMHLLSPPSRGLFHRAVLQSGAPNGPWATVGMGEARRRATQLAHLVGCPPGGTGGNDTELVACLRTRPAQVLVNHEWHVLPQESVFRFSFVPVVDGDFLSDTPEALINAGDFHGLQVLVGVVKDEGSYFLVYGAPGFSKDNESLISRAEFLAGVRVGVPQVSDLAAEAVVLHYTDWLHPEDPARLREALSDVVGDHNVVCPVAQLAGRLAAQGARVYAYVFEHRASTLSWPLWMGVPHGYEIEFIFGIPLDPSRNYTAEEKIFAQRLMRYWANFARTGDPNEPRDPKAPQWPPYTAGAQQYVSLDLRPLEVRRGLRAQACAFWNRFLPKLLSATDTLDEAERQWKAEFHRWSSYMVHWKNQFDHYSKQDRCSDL

Description for Butyrylcholinesterase: Inhibition of Equine Butyrylcholinesterase

In general, Ki refers to the equilibrium dissociation constant of an inhibitor or competing ligand from its target. Higher therefore signals a looser hold on the target. As to `c1ccc2c(NCCCCCCCCSc3c4c(nc5ccccc35)CCCC4)c3c(nc2c1)CCCC3`, the Ki at Acetylcholinesterase [1] was 250 nM; at Butyrylcholinesterase it was 0.4 nM. The like results for `c1ccc2c(NCCCCCSc3c4c(nc5ccccc35)CCCC4)c3c(nc2c1)CCCC3` were, in that order, 210 nM and 10 nM. In the same order, the values of `CN(CCCNc1c2c(nc3ccccc13)CCCC2)CCCNc1c2c(nc3cc(Cl)cc(Cl)c13)CCCC2` are 3.7 nM and 11 nM. As for `CC(=O)N(CCCNc1c2c(nc3ccccc13)CCCC2)CCCNc1c2c(nc3ccccc13)CCCC2`, the inhibition constant Ki at Acetylcholinesterase [1] amounted to 1500 nM; on Butyrylcholinesterase, 2 nM. As for `CN(CCCNc1c2c(nc3ccccc13)CCCC2)CCCNc1c2c(nc3ccccc13)CCCC2`, the results for the Ki at Acetylcholinesterase [1] and at Butyrylcholinesterase were 0.06 nM and 6 nM, respectively. Turning to `CCC1=CC2Cc3nc4cc(Cl)ccc4c(N)c3[C@@H](C1)C2` [HUPRINE X], the affinity at Acetylcholinesterase [2], expressed as Ki, was 0.026 nM.

Source of the values: ChEMBL document CHEMBL1145007 (J Med Chem, 2003).
